Measured values: patent US20240262819A1, “NOVEL COMPOUNDS HAVING INHIBITORY ACTIVITY AGAINST GLUCOSYLCERAMIDE SYNTHASE OR PHARMACEUTICALLY ACCEPTABLE SALT THEREOF, PROCESSES FOR PREPARING THE SAME, AND PHARMACEUTICAL COMPOSITIONS COMPRISING THE SAME” (YUHAN CORPORATION, priority 2021, published 2024)
Where two headings read alike, the source gives them in different places.

Legend:
[1] = system: GM1 production in Jurkat cells; experiment: cells; format: cell-based
[2] = Evaluation of blood-brain barrier (BBB) permeability through oral administration; format: in vivo, mice; conditions: mice, oral, dose 30 mg/kg, 4 hr; for Kp at 4 h / concentration at 4 h: mouse, in vivo; for Kp at 4 h: read-out: Mean brain-plasma drug ratio at 4 hr
Method in brief: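 Mice dosed orally at 10 or 30 mg/10 ml/kg, suspended in 0.5% methyl cellulose with 0.2% Tween 80. Plasma and forebrain homogenate taken 4 hours post-dose, drug measured by LC-MS/MS; brain/plasma ratio calculated from tissue concentrations.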

[3] = target: glucosylceramide synthase (GCS) (Homo sapiens (Human), UniProt Q16739); experiment: Evaluation of inhibitory activities against GCS (A549 cell lysate, NBD C6-ceramide, HPLC); format: biochemical
Method in brief: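 GCS activity in A549 cell lysate (50 mM HEPES, pH 7.3) with NBD C6-ceramide, reacted 90 min at 37 °C. Lipids were chloroform/methanol-extracted and separated by normal-phase HPLC with fluorescence detection (ex 470/em 530 nm). GlcCer fraction of peak area was normalized between DMSO and ibiglustat, and IC50 obtained by curve fitting.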

[4] = read-out: Mean drug concentrations in brain tissue at 4 hr
[5] = read-out: Mean drug concentrations in plasma at 4 hr
[6] = % GCS activity, A549 cell lysate, 37° C. for 90 minutes, read-out: IC50

Chain of glucosylceramide synthase (GCS) (Q16739 whole entry): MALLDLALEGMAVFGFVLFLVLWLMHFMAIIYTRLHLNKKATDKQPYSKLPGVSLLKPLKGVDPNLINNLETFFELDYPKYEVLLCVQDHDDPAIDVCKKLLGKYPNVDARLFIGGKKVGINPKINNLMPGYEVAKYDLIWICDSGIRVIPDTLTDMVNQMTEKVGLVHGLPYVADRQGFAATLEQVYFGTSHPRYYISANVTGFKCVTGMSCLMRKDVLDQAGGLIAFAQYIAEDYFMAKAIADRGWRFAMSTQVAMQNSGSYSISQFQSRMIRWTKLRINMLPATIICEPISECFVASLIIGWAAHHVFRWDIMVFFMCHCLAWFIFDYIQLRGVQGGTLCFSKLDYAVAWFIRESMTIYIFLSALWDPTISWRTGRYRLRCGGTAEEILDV

Row | Molecule | IC50 ([1]; Homo sapiens, Jurkat, 72 h) [pM] | Kp at 4 h [2] | concentration at 4 h [2, 4] [ng/g] | concentration at 4 h [2, 5] [ng/mL] | IC50 [3] [pM] | IC50 ([1]; read-out: IC50) [pM] | Mean brain-plasma drug ratio at 4 hr [2] | Mean drug concentrations in brain tissue at 4 hr [2] [ng/g] | Mean drug concentrations in plasma at 4 hr [2] [ng/mL] | IC50 [3, 6] [pM]
1 | CCOc1ccc(-c2cc3c(cc2F)[C@H](NC(=O)O[C@@H]2CN4CCC2CC4)C(C)(C)CC3)cc1 [Example 176, (S)-quinuclidin-3-yl((R)-6-(4-ethoxyphenyl)-7-fluoro-2,2-dimethyl-1,2,3,4-tetrahydronaphthalen-1-yl)carbamate] | 2100 | 3.58 | 4860 | 1360 | 240 | – | – | – | – | –
2 | COc1c(C)cc(-c2cc3c(cc2F)[C@H](NC(=O)O[C@@H]2CN4CCC2CC4)C(C)(C)CC3)cc1C [Example 180, (S)-quinuclidin-3-yl((R)-7-fluoro-6-(4-methoxy-3,5-dimethylphenyl)-2,2-dimethyl-1,2,3,4-tetrahydronaphthalen-1-yl)carbamate] | 8000 | 1.34 | 1510 | 1140 | 1320 | – | – | – | – | –
3 | CCCOc1c(C)cc(-c2cc3c(cc2F)[C@H](NC(=O)O[C@@H]2CN4CCC2CC4)C(C)(C)CC3)cc1C [Example 181, (S)-quinuclidin-3-yl((R)-6-(3,5-dimethyl-4-propoxyphenyl)-7-fluoro-2,2-dimethyl-1,2,3,4-tetrahydronaphthalen-1-yl)carbamate] | 7100 | 1.65 | 848 | 510 | 1850 | – | – | – | – | –
4 | CC(C)Oc1ccc(-c2cc3c(cc2F)[C@H](NC(=O)O[C@@H]2CN4CCC2CC4)C(C)(C)CC3)cc1Cl [Example 193, (S)-quinuclidin-3-yl((R)-6-(3-chloro-4-isopropoxyphenyl)-7-fluoro-2,2-dimethyl-1,2,3,4-tetrahydronaphthalen-1-yl)carbamate] | 6750 | 3.46 | 3020 | 871 | 780 | – | – | – | – | –
5 | COc1ccc(-c2cc3c(cc2F)[C@H](NC(=O)O[C@@H]2CN4CCC2CC4)C(C)(C)CC3)c(F)c1 [Example 194, (S)-quinuclidin-3-yl((R)-7-fluoro-6-(2-fluoro-4-methoxyphenyl)-2,2-dimethyl-1,2,3,4-tetrahydronaphthalen-1-yl)carbamate] | 4600 | 1.67 | 2100 | 1260 | 410 | – | – | – | – | –
6 | CC(C)Oc1ccc(-c2cc3c(cc2F)[C@H](NC(=O)O[C@@H]2CN4CCC2CC4)C(C)(C)CC3)cc1 [Example 197, (S)-quinuclidin-3-yl((R)-7-fluoro-6-(4-isopropoxyphenyl)-2,2-dimethyl-1,2,3,4-tetrahydronaphthalen-1-yl)carbamate] | 940 | 3.56 | 6690 | 1880 | 200 | – | – | – | – | –
7 | CC(C)Oc1ccc(-c2cc3c(cc2F)[C@H](NC(=O)O[C@@H]2CN4CCC2CC4)C(C)(C)CC3)cc1F [Example 198, (S)-quinuclidin-3-yl((R)-7-fluoro-6-(3-fluoro-4-isopropoxyphenyl)-2,2-dimethyl-1,2,3,4-tetrahydronaphthalen-1-yl)carbamate] | 3200 | 3.46 | 5120 | 1480 | 340 | – | – | – | – | –
8 | (S)-quinuclidin-3-yl((R)-6-(2-chloro-4-isopropoxyphenyl)-7-fluoro-2,2-dimethyl-1,2,3,4-tetrahydronaphthalen-1-yl) carbamate [Example 199] | – | – | – | – | – | 30 | 1.165 | 2689 | 2327.6 | 192
9 | (S)-quinuclidin-3-yl((R)-7-fluoro-2,2-dimethyl-6-(4-propoxyphenyl)-1,2,3,4-tetrahydronaphthalen-1-yl) carbamate [Example 177] | – | – | – | – | – | 430 | 5.444 | 4788.9 | 880.7 | 250
